The target in data set [1] is T1, recombinant human secreted phospholipase A2 (Homo sapiens, UniProt P14555).
T1 sequence (P14555 21-144): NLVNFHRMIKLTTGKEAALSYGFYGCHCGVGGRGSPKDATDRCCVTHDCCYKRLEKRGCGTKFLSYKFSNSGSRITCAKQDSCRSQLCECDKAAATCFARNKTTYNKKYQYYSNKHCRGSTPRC
Briefly: sPLA2 Chromogenic Assay (Assay 1). As to conditions: diheptanoyl thio-PC substrate, pH 7.5, 40° C. for 30 minutes, absorbance at 405 nanometers. It counts as biochemical.
Procedure: The following chromogenic assay procedure was used to identify and evaluate inhibitors of recombinant human secreted phospholipase A2. The assay described herein has been adapted for high volume screening using 96 well microtiter plates.
A measured volume of racemic dipheptanoyl thio PC supplied in chloroform at a concentration of 100 mg/ml is taken to dryness and redissolved in 10 millimolar TRITON X-100™ nonionic detergent aqueous solution. Reaction Buffer is added to the solution, then DTNB to give the Reaction Mixture.
The reaction mixture thus obtained contains 1 mM diheptanoyl thio-PC substrate, 0.29 mm Triton X-100™ detergent, and 0.12 mm DTMB in a buffered aqueous solution at pH 7.5.
1. Add 0.2 ml reaction mixture to all wells;
2. Add 10 ul test compound (or solvent blank) to appropriate wells, mix 20 seconds;
3. Add 50 nanograms of sPLA2 (10 microliters) to appropriate wells;
4. Incubate plate at 40° C. for 30 minutes;
All compounds were tested in triplicate. […] Each sample was titrated in triplicate and result values were averaged for plotting and calculation of IC50 values.

In turn, `CCc1c(C(=O)C(N)=O)c2c(OCC(=O)OC)cccn2c1Cc1sccc1-c1cccs1` [Compound 51l, 2-(8-(Carbomethoxymethyloxy)-2-ethyl-3-((3-thiophen-2-yl)thiophen-2-ylmethyl)indolizin-1-yl)glyoxylamide] came in with a melting point of 176 to 177 °C. For the same compound, in data set [1], the IC50 is 96 nM.

As to `CCc1c(C(=O)C(N)=O)c2c(OCC(=O)OC)cccn2c1Cc1cccc(OC)c1` [Compound 51m, 2-(2-Ethyl-8-(carbomethoxymethyloxy)-3-(m-methoxybenzyl)indolizine-1-yl)glyoxylamide], the melting point lay in the range of 155 to 157 °C. Moreover, the IC50 in data set [1] is 310 nM.

In turn, `CCCCc1ccc(Cc2c(CC)c(C(=O)C(N)=O)c3c(OCC(=O)OC)cccn23)cc1` [Compound 51s, 2-(3-(p-n-Butylbenzyl)-8-(carbomethoxymethyloxy)-2-ethylindolizin-1-yl)glyoxylamide] returned a melting point of 174 to 176 °C. In addition, in data set [1], the IC50 turned out to be 150 nM.

`COC(=O)COc1cccn2c(CC3CCCCC3)c(C)c(C(=O)C(N)=O)c12` [Compound 51t] gave a melting point of 177 to 178 °C. The IC50 in data set [1] came out at 130 nM.

Turning to `CCCC(CCC)Cc1c(CC)c(C(=O)C(N)=O)c2c(OCC(=O)O)cccn12` [Compound 52f, 2-(8-Carboxymethyloxy-2-ethyl-3-(2-propylpentyl)indolizin-1-yl)glyoxylamide], the melting point was in the range of 176 to 177 °C. Also, in data set [1], the half-maximal inhibitory concentration (IC50) was 17 nM.

Consider `CCc1c(C(=O)C(N)=O)c2c(OCC(=O)O)cccn2c1Cc1sccc1-c1cccs1` [Compound 52l, 2-(8-(Carboxymethyloxy)-2-ethyl-3-((3-thiophen-2-yl)thiophen-2-ylmethyl)indolizin-1-yl)glyoxylamide], for which the melting point is 209 to 210 °C. In addition, the 50% inhibitory concentration (IC50) in data set [1] turned out to be 10 nM.

The compound `CC(C)(C)c1c(C(=O)C(N)=O)c2c(OCC(=O)O)cccn2c1Cc1ccccc1-c1ccccc1` [Compound 58e, 2-(2-t-Butyl-8-carboxymethoxyl-3-(o-phenylbenzyl)indlolin-1-yl)glyoxylamide] showed a melting point of 221 to 222 °C. For the same compound, the IC50 in data set [1] is 100 nM.

Regarding `NC(=O)C(=O)c1c(C2CCCC2)c(Cc2ccccc2-c2ccccc2)n2cccc(OCC(=O)O)c12` [Compound 58f, 2-(8-Carboxymethyloxy-2-cyclopentyl-3-(o-phenylbenzyl)indlolin-1-yl)glyoxylamide], the melting point lay in the range of 147 to 148 °C. For the same compound, the IC50 in data set [1] came out at 280 nM.

In turn, `CCc1c(C(=O)C(N)=O)c2c(OCC(=O)O)cccn2c1Cc1cccc(-c2ccccc2)c1` [Compound 58g, 2-(8-Carboxymethyloxy-2-ethyl-3-(m-phenylbenzyl)indlolin-1-yl)glyoxylamide] showed a melting point of 241 to 244 °C. For the same compound, in data set [1], the IC50 is 9 nM.

The compound `CCc1c(C(=O)C(N)=O)c2c(OCC(=O)O)cccn2c1CC=Cc1ccccc1` [Compound 58h, 2-(8-Carboxymethyloxy-2-ethyl-^3-(3-phenyl-2-propenyl)indlolin-1-yl)glyoxylamide] gave a melting point of 222 to 224 °C. Besides, the IC50 in data set [1] stood at 38 nM.

Consider `CCc1c(C(=O)C(N)=O)c2c(OCC(=O)O)cccn2c1CCCc1ccccc1` [Compound 58i, 2-(8-Carboxymethyloxy-2-ethyl-3-(3-phenyl-2-propanyl)indlolin-1-yl)glyoxylamide], for which the melting point was in the range of 215 to 217 °C. Also, the IC50 in data set [1] came out at 51 nM.

On to `NC(=O)C(=O)c1c(C2CC2)c(Cc2cccc3ccccc23)n2cccc(OCC(=O)O)c12` [Compound 58j, 2-(8-carboxymethoxyl-2-cyclopropyl-3-(1-naphthylmethyl)indlolin-1-yl)glyoxylamide], for which the melting point was in the range of 205 to 207 °C. Besides, the IC50 in data set [1] is 23 nM.

Consider `NC(=O)C(=O)c1c(C2CC2)c(CC2CCCCC2)n2cccc(OCC(=O)O)c12` [Compound 58k, 2-(8-carboxymethoxyl-3-cyclohexylmethyl-2-cyclopropylindolizin-1-yl)glyoxylamide], for which the melting point was 229 to 234 °C. For the same compound, the IC50 in data set [1] is 43 nM.

The compound `CCc1c(C(=O)C(N)=O)c2c(OCC(=O)OCC(=O)OC(C)(C)C)cccn2c1Cc1ccccc1-c1ccccc1` [Compound 59d] gave a melting point of 102 to 104 °C. Besides, the IC50 in data set [1] came to 83 nM.

In the case of `CCc1c(C(=O)C(N)=O)c2c(OCC(=O)OC(C)OC(=O)OC3CCCC3)cccn2c1Cc1ccccc1-c1ccccc1` (centres unmarked) [Compound 59g, 2-(3-Biphenyl-2-ylmethyl-8-(1-cyclopentyloxycarbonyloxyethyloxycarbonylmethyloxy)-2-ethylindolizin-1-yl)glyoxylamide], the melting point fell in the range of 74 to 80 °C. The IC50 in data set [1] turned out to be 39 nM.

Turning to `CCc1c(C(=O)C(N)=O)c2c(OCC(=O)OCCN3CCOCC3)cccn2c1Cc1ccccc1-c1ccccc1` [Compound 59i, 2-(3-(Biphenyl-2-yl-methyl)-2-ethyl-8-(2-morpholinoethyloxycarbonylmethyloxy)indolizine-1-yl)glyoxylamide], the melting point was 113 to 120 °C (dec.). Also, the IC50 in data set [1] stood at 22 nM.

Compound `CCc1c(C(=O)C(N)=O)c2c(OCC(=O)OCC(C)=O)cccn2c1Cc1ccccc1-c1ccccc1` [Compound 59k, 2-(3-(Biphenyl-2-yl-methyl)-2-ethyl-8-(2-oxopropyloxycarbonylmethoxy)indolizine-1-yl)glyoxylamide] returned a melting point of 159 to 162 °C. Besides, the IC50 in data set [1] was 113 nM.

Consider `CCc1c(C(=O)C(N)=O)c2c(OCc3nnn[nH]3)cccn2c1Cc1ccccc1-c1ccccc1` [Compound 59m, 2-(3-(Biphenyl-2-yl-methyl)-2-ethyl-8-(1H-tetracol-5-ylmethyloxy)indolizine-1-yl)glyoxylamide], for which the melting point was 206 to 209 °C (dec.). Also, the IC50 in data set [1] amounted to 7 nM.

As for `Cc1c(C(=O)C(N)=O)c2c(OCc3ccccn3)cccn2c1Cc1ccccc1-c1ccccc1` [Compound 59n, 2-(3-Biphenyl-2-ylmethyl-2-methyl-8-(pyridin-2-ylmethoxy)-indolizin-1-yl)-glyoxylamide], the melting point fell in the range of 196 to 197 °C. For the same compound, the IC50 in data set [1] is 600 nM.

Compound `Cc1c(C(=O)C(N)=O)c2c(OCc3ccncc3)cccn2c1Cc1ccccc1-c1ccccc1` [Compound 59o, 2-(3-Biphenyl-2-ylmethyl-2-methyl-8-(pyridin-4-ylmethoxy)-indolizin-1-yl)-glyoxylamide] yielded a melting point of 195 to 197 °C. The IC50 in data set [1] was found to be 490 nM.

In turn, `Cc1c(C(=O)C(N)=O)c2c(OCc3ccc4ccccc4n3)cccn2c1Cc1ccccc1-c1ccccc1` [Compound 59p, 2-(3-Biphenyl-2-ylmethyl-2-methyl-8-(quinolin-2-ylmethoxy)-indolizin-1-yl)-glyoxylamide] showed a melting point of 165 to 167 °C. The IC50 in data set [1] amounted to 200 nM.

In turn, `CCc1c(C(=O)C(N)=O)c2c(OCCC(=O)OC)cccn2c1Cc1ccccc1-c1ccccc1` [Compound 70c, 2-(3-(Biphenyl-2-yl-methyl)-8-(2-carbomethoxyethyloxy)-2-ethylindolizine-1-yl)glyoxylamide] showed a melting point of 159 to 162 °C. Besides, in data set [1], the IC50 came to 130 nM.

By IC50 is commonly meant the concentration that inhibits the measured activity by half. One may read the melting point as the temperature of the solid-liquid transition.

The values are drawn from patent US6645976B1 (Eli Lilly and Company, priority 1994, dated 2003).
